Data reported in patent publication US20250109139A1, “TRICYCLIC COMPOUND, AND PREPARATION METHOD THEREFOR AND USE THEREOF” (SHANGHAITECH UNIVERSITY, priority 2022, published 2025).
Where two headings read alike, the source gives them in different places.

What was measured:
[1] = test system: MK801-induced hyperlocomotion in mice; assay: Open field test, MK801-induced hyperlocomotion (schizophrenia-like model); assay type: in vivo, C57B6 male mice; details: for inhibition of MK801-induced hyperlocomotion in mice (in words): at different doses
Experimental: Experimental method: The experimental animals were C57B6 male mice, n=8 in each group. In this model, C57B6 mice were used as experimental animals. Hyperlocomotion of the mice in open field was induced by acute injection of a NMDA antagonist MK801, and modeled to test the inhibitory effect of different compounds on hyperlocomotion phenotype induced by MK801 All mouse behavior experiments were carried out during the light period. The whole process was recorded by the camera, and locomotive data were tracked and analyzed by behavioral tracking software. The compounds were administered intraperitoneally. Immediately after the injection, the mice entered the open field and their movement trajectories were recorded by the camera. After 30 minutes, the mice received 0.2 mg/kg of MK801 by intraperitoneal injection and returned to the open field immediately after administration, and the movement trajectories were further recorded for 120 minutes. The accumulative travelled distance of the mice was counted in a 5-minute bin. Data statistics were performed using Student-t-test analysis, *p<0.05, **p<0.01, ***p<0.001, ****p<0.0001. The total travelled distance of the mice in the 0-45 minute interval after administration of the compounds of the present disclosure at different doses in combination with MK801 (0.2 mg/kg) is shown in Table 10.

[2] = target: dopamine D2 receptors (Homo sapiens (Human), UniProt P14416); assay: Dopamine D2 receptor radioligand competition binding assay ([3H]-Methylspiperone); details: [3H]-Methylspiperone 0.3 to 0.5 nM, 293T membranes
dopamine D2 receptors, sequence (P14416 whole entry): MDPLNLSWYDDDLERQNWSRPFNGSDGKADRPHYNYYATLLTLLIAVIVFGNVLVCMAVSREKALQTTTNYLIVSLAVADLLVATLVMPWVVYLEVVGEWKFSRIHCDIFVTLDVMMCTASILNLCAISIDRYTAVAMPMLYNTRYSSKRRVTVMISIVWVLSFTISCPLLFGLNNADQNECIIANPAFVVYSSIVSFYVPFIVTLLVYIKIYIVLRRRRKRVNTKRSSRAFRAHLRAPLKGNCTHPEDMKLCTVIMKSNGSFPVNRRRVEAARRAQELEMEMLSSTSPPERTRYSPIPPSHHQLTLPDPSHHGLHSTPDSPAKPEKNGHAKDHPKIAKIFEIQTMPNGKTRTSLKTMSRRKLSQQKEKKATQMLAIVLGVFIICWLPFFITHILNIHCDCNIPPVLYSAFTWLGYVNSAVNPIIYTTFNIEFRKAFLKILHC
In short: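 Membranes from cells transfected with human D2 receptor, PEI-mediated; competition with [3H]-methylspiperone for 2 h at room temperature in the dark.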

[3] = Pharmacokinetics in SD rats, single dose intragastric and intravenous; assay type: in vivo; details: for Vd / AUC(0-t) / clearance / half-life / MRT / Cmax / bioavailability / Tmax: male, rat, plasma; for Vd: read-out: Apparent volume of distribution Vdss; for AUC(0-t): read-out: Area under the drug-time curve AUC0-t; for clearance: read-out: Clearance CL; for half-life: read-out: Elimination half-life t1/2 (converted); for MRT: read-out: Mean residence time MRT; for bioavailability: read-out: Bioavailability F; for Tmax: read-out: Time to peak concentration tmax
Experimental: Testing of pharmacokinetic properties of compounds administered in a single dose to SD rats by intragastric administration and intravenous injection
After the compound was administered in a single dose to male SD rats, blood samples were collected at different time points. The concentration of the compound in the plasma of the rats was determined by LC-MS/MS and the relevant pharmacokinetic parameters were calculated to investigate the pharmacokinetics of the compound in rats.
Male SD rats were provided by Suzhou JOINN Laboratories Co., Ltd. SD rats were fasted with free access to water for 12 to 14 hours one day before administration, and were fed 4 hours after administration.
For each compound, the […] were divided into two groups: intravenous injection and intragastric administration, with 3 rats in each group. For both intravenous injection (administered at a dose of 3 mg/kg and a concentration of 0.6 mL/kg) and intragastric administration (administered at a dose of 10 mg/kg and a concentration of 1 mL/kg), 5% DMSO+5% Solutol+90% saline was used as the vehicle.
Sample collection: 0.10 mL of blood was collected from the orbit of each animal in IV/PO groups each time at 5 minutes, 15 minutes, 30 minutes, 1 hour, 2 hours, 4 hours, 6 hours, 8 hours, and 24 hours after administration of the test compound, and anticoagulated with EDTA-K2. Blood samples were placed on ice after collection, and plasma was separated by centrifugation within 30 minutes (centrifugation conditions: 5000 rpm, 10 minutes, 4° C.). The collected plasma was stored at −80° C. before analysis.
Data processing: The data acquisition and control system software was Analyst 1.5.1 software (Applied Biosystem). The peak integration method of chromatographic samples was automatic integration; the ratio of the peak area of the sample to the peak area of the internal standard was used as an index for regression with the concentration of the sample. […] Pharmacokinetic parameters were analyzed with a non-compartmental model using WinNonlin Professional v6.3 (Pharsight, USA). Cmax was the measured maximum plasma concentration, the area under the plasma concentration-time curve AUC(0→t) was calculated by the trapezoidal method, and tmax was the time to peak plasma concentration after administration. Experimental data were presented as “Mean±SD” (n≥3) or “Mean” (n=2).

[4] = MK801 0.2 mg/kg + compound 0.0156 mg/kg i.p.
[5] = MK801 0.2 mg/kg + compound 0.0625 mg/kg i.p.
[6] = MK801 0.2 mg/kg + compound 0.25 mg/kg i.p.
[7] = read-out: Affinity pKi ± SEM (converted)
[8] = intravenous injection, 3 mg/kg, read-out: Peak drug concentration C0 or Cmax
[9] = oral administration, 10 mg/kg, read-out: Peak drug concentration Cmax

Compound | Distance travelled in 45 minutes [1, 4] [cm] | Distance travelled in 45 minutes [1, 5] [cm] | Distance travelled in 45 minutes [1, 6] [cm] | inhibition of MK801-induced hyperlocomotion in mice (in words) [1] | Ki ([2]; read-out: Affinity Ki) [nM] | Ki [2, 7] [nM] | Vd ([3]; intravenous injection, 3 mg/kg) [L/kg] | AUC(0-t) ([3]; intravenous injection, 3 mg/kg) [ng·h/mL] | clearance ([3]; intravenous injection, 3 mg/kg) [mL/min/kg] | half-life ([3]; intravenous injection, 3 mg/kg) [min] | MRT ([3]; intravenous injection, 3 mg/kg) [h] | Cmax [3, 8] [ng/mL] | AUC(0-t) ([3]; oral administration, 10 mg/kg) [ng·h/mL] | bioavailability ([3]; oral administration, 10 mg/kg) [%] | half-life ([3]; oral administration, 10 mg/kg) [min] | MRT ([3]; oral administration, 10 mg/kg) [h] | Cmax [3, 9] [ng/mL] | Tmax ([3]; oral administration, 10 mg/kg) [min] | also measured
COc1cccc2c3c(oc12)CN(CC[C@H]1CC[C@H](NC(=O)N(C)C)CC1)CC3 [I-A12, 3-(trans-4-(2-(8-methoxy-3,4-dihydrobenzofuro[2,3-c]pyridin-2(1H)-yl)ethyl)cyclohexyl)-1,1-dimethylurea] | 12729 | 5648 | 2267 | significantly inhibit | 436 | 372 | 9.14 ± 1.5 | 1100 ± 215 | 45.4 ± 7.9 | 248 ± 42 | 3.36 ± 0.2 | 824 ± 299 | 5660 ± 2660 | 151 ± 71 | 215 ± 30 | 4.42 ± 0.66 | 963 ± 322 | 50 ± 60 | 
COc1cccc2c3c([nH]c12)CN(CC[C@H]1CC[C@H](NC(=O)N(C)C)CC1)CC3 [I-B7, 3-(trans-4-(2-(8-methoxy-1,3,4,9-tetrahydro-2H-pyrido[3,4-b]indol-2-yl)ethyl)cyclohexyl)-1,1-dimethylurea] |  |  | 13668 | significantly inhibit | 2.71 | 1.82 | 7.56 ± 0.4 | 2350 ± 127 | 21 ± 1.2 | 235 ± 18 | 6.01 ± 0.2 | 330 ± 61 | 10200 ± 945 | 128 ± 12 | 307 ± 42 | 8.08 ± 0.23 | 734 ± 34 | 190 ± 240 | Distance travelled in 45 minutes ([1]; MK801 0.2 mg/kg + compound 1 mg/kg i.p.): 10199 cm; Distance travelled in 45 minutes ([1]; MK801 0.2 mg/kg + compound 4 mg/kg i.p.): 4360 cm
COc1cccc2c1cc1n2CCN(CCCCOc2ccc3ccc(=O)[nH]c3c2)C1 [I-C1, 7-(4-(9-methoxy-3,4-dihydropyrazino[1,2-a]indol-2(1H)-yl)butoxy)quinolin-2(1H)-one] |  |  |  |  | 401 | 269 | 2.16 ± 0.1 | 4970 ± 751 | 10.1 ± 1.4 | 218 ± 42 | 3.58 ± 0.3 | 3310 ± 349 | 8140 ± 2050 | 48.8 | 442 ± 252 | 10 ± 6.5 | 1150 ± 198 | 15 | 
COc1cccc2c1cc1n2CCN(CCCCOc2ccc3c(c2)NC(=O)CC3)C1 [I-C2, 7-(4-(9-methoxy-3,4-dihydropyrazino[1,2-a]indol-2(1H)-yl)butoxy)-3,4-dihydroquinolin-2(1H)-one] |  |  |  |  | 221 | 61.7 | 1.51 ± 0.3 | 2790 ± 842 | 19.1 ± 6.8 | 107 ± 66 | 1.38 ± 0.3 | 3340 ± 629 | 7730 ± 467 | 82.4 ± 5 | 245 ± 96 | 5.46 ± 0.09 | 1310 ± 701 | 19.8 ± 8.4 | 
COc1cccc2c3c(oc12)CN(CCCCOc1ccc2ccc(=O)[nH]c2c1)CC3 [I-A1, 7-(4-(8-methoxy-3,4-dihydrobenzofuro[2,3-c]pyridin-2(1H)-yl)butoxy)quinolin-2(1H)-one] | 9023 | 10706 | 3630 | significantly inhibit | 84.4 |  |  |  |  |  |  | 1330 ± 117 |  |  | 235 ± 18 |  |  |  | Affinity pKi ± SEM [2]: (7.07 ± 0.02); Area under the drug-time curve AUC0-t ([3]; intravenous injection, 3 mg/kg): 2991 ± 212 ng·h/mL; Clearance CL ([3]; intravenous injection, 3 mg/kg): 16.7 ± 1.12 mL/min/kg; Elimination half-life t1/2 ([3]; intravenous injection, 3 mg/kg): 3.48 ± 0.1 h; Area under the drug-time curve AUC0-t ([3]; oral administration, 10 mg/kg): 8916 ± 3642 ng·h/mL; Bioavailability F ([3]; oral administration, 10 mg/kg): 88.8 ± 36%; Peak drug concentration Cmax ([3]; oral administration, 10 mg/kg): 1555 ± 362 ng/mL; Time to peak concentration tmax ([3]; oral administration, 10 mg/kg): 30 ± 0 min
